The results in this text go back to article PMC5111122, “Peptides at the Interface: Self-Assembly of Amphiphilic Designer Peptides and Their Membrane Interaction Propensity” (Biomacromolecules, 2016).

The nature of series [1]: Determination of the critical aggregation concentration (CAC), DPH fluorescence assay. The class given is physicochemical. The note with it: excitation 359 nm, emission 428 nm, peptide in double-distilled water cleared with NaOH, aged 1 week, intersection of two fitted straight lines. As to the method:
(§1) Lyophilized peptides were dissolved in double-distilled water. NaOH (1 or 0.1 M) was added stepwise until the samples appeared as clear, colorless solutions. Stock solutions (50 mM) were then diluted with double-distilled water to obtain the desired concentrations. All samples were aged for 1 week under an argon atmosphere prior to fluorescence, SAXS, TEM, and attenuated total reflection Fourier transform infrared (ATR-FTIR) spectroscopy measurements.
A 4 μL portion of DPH in methanol (10 μM) was added to 50 μL of peptide solution of varying concentrations. All fluorescence spectra were recorded under identical conditions on a CLARIOstar microplate reader (BMG LABTECH, Ortenberg, Germany) with an excitation wavelength of 359 nm. Fluorescence emission was recorded at 428 nm. Samples were background corrected and normalized to the highest intensity readout. DPH is almost nonfluorescent in aqueous solutions and in the presence of randomly oriented peptide monomers. As soon as oriented structures are formed, a sharp increase in fluorescence intensity is observed. The CAC of the peptide is defined as the intersection point of two straight lines, fitting the low intensity region and the region with linearly increasing intensity.[18]

Series [2] can be described thus: TEM of peptide assemblies (negative staining, cryo). The class given is physicochemical. The protocol:
as §1
Solutions of A6YD and V4WD2 (11 mM) were incubated for 1 week prior to TEM measurements. Samples were adsorbed onto a glow-discharged carbon-coated copper grid and allowed to settle for 1 min. Excess fluid was carefully removed with filter paper and immediately replaced by 5 μL of a 2% (w/v) uranyl acetate staining solution, which was centrifuged for 6 min at 10000 rpm prior to usage in order to precipitate potentially present aggregates. The uranyl acetate solution was allowed to settle for 30 s, blotted, and replaced by another 5 μL of fresh solution. After 30 s of incubation, the staining solution was removed and the sample was air-dried. Visualization of the samples was achieved by using a Fei Tecnai G^2 20 transmission electron microscope (Eindhoven, The Netherlands) operating at an acceleration voltage of 120 kV. Digital images were made using a Gatan US1000 CCD camera at 2K × 2K resolution.

Series [3] is described as follows: Differential scanning calorimetry (DSC) on DPPC MLVs. The note with it: as evidenced by DSC, EPR, and SAXS. As to the method:
DPPC was dissolved in chloroform/methanol (2:1 v/v), mixed, and organic solvents were evaporated under a gentle stream of nitrogen, followed by drying under a vacuum overnight in order to completely remove residual organic solvents. The dry lipid-film was hydrated either by adding double-distilled water (reference) or by adding aqueous solutions of the peptides to finally obtain four different molar ratios: 50:1, 25:1, 10:1, and 5:1 DPPC/peptide (mol/mol). These ratios correspond to peptide concentrations of 1.1, 2.2, 5.5, and 11 mM, respectively. The DPPC concentration was 55 mM. The samples were incubated above the lipid’s phase transition temperature at 50 °C for 2 h, intermitted by vigorous vortexing every 15 min.
DPPC MLVs in the presence and absence of peptides were prepared as described above, incubated for 24 h at room temperature (gently rotating), and diluted with double-distilled water to 2.75 mM DPPC prior to measurements to fit the optimal concentration regime for DSC. Measurements were performed on a Microcal VP-DSC differential scanning calorimeter (Northampton, MA, USA). Scans were recorded at a constant scan rate of 0.5 °C/min from 10 to 80 °C. […] The sharpness of the transition was described by the full width at half-maximum (ΔT1/2), and calorimetric enthalpies (ΔH) were calculated by integrating the peak areas.
On the technique in general: Differential scanning calorimetry records heat flow against a reference as temperature is scanned.

Test in series [4]: not given
This is another data set of the same source.

Consider Ac-AAAAAAYK-NH2 [A6YK], for which the “∼CAC (critical aggregation concentration)” value in series [1] is given as around 1 mM. Besides, the “diameter of supramolecular cylinders (TEM, both techniques)” value in series [2] (above the CAC, Fig. S11) is 4- 12 nm. In addition, the “fiber diameter, cryo-TEM” value in series [2] (cryogenic conditions) is recorded as 8–12 nm. Further, the “nanofiber diameter, negative-staining TEM” value in series [2] (negative staining with 2% uranyl acetate, peptide aged 1 week) was 4–10 nm. Also, in series [3], the “interaction with DPPC MLVs” value was “no interaction”.

On to Ac-AAAAAAYD-OH, for which the hard sphere radius (Rs) amounted to 2.6 nm. Besides, in series [4], the peptide fiber diameter in presence of LDL is 10 nm.
